Activity calls are given as the source filed them. No rule for the calls is given here. Bounds are passed on as bounds.

The values that follow come from PubChem BioAssay AID743352 (Broad Institute, 2014).

The assay relates to M. tuberculosis BioA-TetON underexpression strain, growth inhibition. As to the kind of experiment: m tuberculosis bioa teton underexpression strain, growth inhibition, cell based, single point (AID 743352).
Usually IC90 stands for the concentration at which the effect reaches the 90% level. As for `CCCCCCCC(=O)N1CC[C@@H]2[C@@H](CO)N(C)c3ccc(-c4cccc(F)c4)cc3[C@@H]21`, the IC90 is > 50 µM (inactive). As for `CN1c2ccc(-c3cccc(F)c3)cc2[C@@H]2[C@@H](CCN2C(=O)c2ccc3c(c2)OCO3)[C@H]1CO`, the figure is > 50 µM (inactive). Turning to `CN1c2ccc(-c3cccc(F)c3)cc2[C@H]2[C@H](CCN2C(=O)CCCCCCN)[C@H]1CO`, the IC90 is > 50 µM (inactive). Next, `CN1c2ccc(-c3cccc(F)c3)cc2[C@@H]2[C@@H](CCN2C(=O)c2ccc3c(c2)OCO3)[C@@H]1CO`: > 50 µM (inactive); `COc1ccc(NC(=O)N2CC[C@@H]3[C@@H](CO)N(C)c4ccc(-c5cccc(F)c5)cc4[C@@H]32)cc1`: > 50 µM (inactive). Consider `CN1c2ccc(-c3ccc(F)cc3)cc2[C@H]2[C@H](CCN2C(=O)Cc2ccccn2)[C@H]1CO`, for which the IC90 was > 50 µM (inactive). As for `CN1c2ccc(-c3cccc(F)c3)cc2[C@H]2[C@H](CCN2C(=O)c2ccc3c(c2)OCO3)[C@@H]1CO`, the figure is > 50 µM (inactive). In the case of `CN1c2ccc(-c3ccc(F)cc3)cc2[C@H]2[C@H](CCN2C(=O)Nc2ccc(F)cc2)[C@H]1CO`, the IC90 was > 50 µM (inactive). As for `CNS(=O)(=O)c1ccc(N2CCN(C(=O)c3ccc4c(c3)OCO4)CC2)cc1`, the figure is > 50 µM (inactive); as for `CCC(=O)N1CC[C@@H]2[C@@H](CO)N(C)c3ccc(-c4ccc(F)cc4)cc3[C@@H]21`, > 50 µM (inactive). Next, `COc1ccccc1C(=O)N1CCN(c2ccc(C(C)=O)cc2)CC1`: > 50 µM (inactive). Next, `CC(=O)c1ccc(N2CCN(C(=O)c3ccccc3Cl)CC2)cc1`: > 50 µM (inactive). Take `CN1c2ccc(-c3cccc(F)c3)cc2[C@H]2[C@H](CCN2C(=O)CCCCCCC(=O)O)[C@H]1CO`: the IC90 was > 50 µM (inactive).

With `CN1c2ccc(-c3ccc(F)cc3)cc2[C@H]2[C@H](CCN2C(=O)Nc2cc(F)ccc2F)[C@H]1CO`, the IC90 was > 50 µM (inactive). Next, `CC(=O)c1ccc(N2CCN(C(=O)c3ccccc3F)CC2)cc1`: > 50 µM (inactive); `COc1ccccc1NC(=O)N1CC[C@@H]2[C@@H](CO)N(C)c3ccc(-c4cccc(F)c4)cc3[C@@H]21`: > 50 µM (inactive); `CN1c2ccc(-c3cccc(F)c3)cc2[C@H]2[C@H](CCN2C(=O)Cc2cccnc2)[C@H]1CO`: > 50 µM (inactive).

Take `CC(C)NC(=O)N1CC[C@@H]2[C@@H](CO)N(C)c3ccc(-c4cccc(F)c4)cc3[C@@H]21`: the IC90 is > 50 µM (inactive). Next, `CN1c2ccc(-c3cccc(F)c3)cc2[C@H]2[C@H](CCN2C(=O)Cc2ccccc2)[C@H]1CO`: > 50 µM (inactive); `CN1c2ccc(-c3ccc(F)cc3)cc2[C@H]2[C@H](CCN2C(=O)Cc2cccnc2)[C@H]1CO`: > 50 µM (inactive). As for `CC(=O)c1ccc(N2CC3(CN(C(=O)c4ccc5c(c4)OCO5)C3)C2)cc1`, the figure is > 50 µM (inactive).

Take `CC(=O)c1ccc(N2CCN(C(=O)c3ccc4c(c3)OCO4)CC2)cc1`: the IC90 was 22.2 µM.

On to `CCCNC(=O)N1CC[C@@H]2[C@@H](CO)N(C)c3ccc(-c4ccc(F)cc4)cc3[C@@H]21`, for which the IC90 is > 50 µM (inactive). As for `COC(=O)CCCCCCC(=O)N1CC[C@@H]2[C@@H](CO)N(C)c3ccc(-c4cccc(F)c4)cc3[C@@H]21`, the figure is > 50 µM (inactive); as for `CC(=O)c1ccc(N2CCN(C(=O)c3ccc4c(c3)OCO4)[C@H](C)C2)cc1`, 17.3 µM. Consider `CC(=O)c1ccc(NCCNC(=O)c2ccc3c(c2)OCO3)cc1`, for which the IC90 is > 50 µM (inactive). Next, `CN1c2ccc(-c3cccc(F)c3)cc2[C@H]2[C@H](CCN2C(=O)Nc2ccccc2F)[C@H]1CO`: > 50 µM (inactive). As for `COc1ccccc1NC(=O)N1CC[C@@H]2[C@@H](CO)N(C)c3ccc(-c4ccc(F)cc4)cc3[C@@H]21`, the figure is > 50 µM (inactive); as for `CNC(=O)c1ccc(N2CCN(C(=O)c3ccc4c(c3)OCO4)CC2)cc1`, > 50 µM (inactive); as for `COCC(=O)N1CC[C@@H]2[C@@H](CO)N(C)c3ccc(-c4cccc(F)c4)cc3[C@@H]21`, > 50 µM (inactive).

As to `CN(C)C(=O)c1ccc(N2CCN(C(=O)c3ccc4c(c3)OCO4)CC2)cc1`, the IC90 was > 50 µM (inactive). As for `COc1ccc(NC(=O)N2CC[C@@H]3[C@@H](CO)N(C)c4ccc(-c5ccc(F)cc5)cc4[C@@H]32)cc1`, the figure is > 50 µM (inactive); as for `COc1cccc(NC(=O)N2CC[C@@H]3[C@@H](CO)N(C)c4ccc(-c5cccc(F)c5)cc4[C@@H]32)c1`, > 50 µM (inactive); as for `CC(C)NC(=O)N1CC[C@@H]2[C@@H](CO)N(C)c3ccc(-c4ccc(F)cc4)cc3[C@@H]21`, > 50 µM (inactive).
